For assay [1], the target named is T1, DRB1*0301 (DR3w17) (Homo sapiens, UniProt P01903+P01911, A100K/A102G/A103R/A169T/F55Y/I96L/K41T/L162R/M171V/P40S/Q125H/Q178H/Q39Y/R42S/S66N/T106N/T262R/W38E/Y61H). The experiment in a line: biochemical.
The target of assay [2] is T2, DRB1*0101 (DR1) (Homo sapiens, UniProt P01903+P01911, A100R/D57E/F55L/F60I/F76Y/I96L/L162R/M171V/P40L/Q125E/R42F/V115G/Y59C).
T2 construct: Epstein-Barr virus (EBV) transformed homozygous cell lines were used as sources; endogenous in cells; host or cells: LG2 (EBV-transformed homozygous B cell line)
In words: biochemical. To be noted: Binding Capacity (IC 50% nM) DR1,4,7 DRB1. Format: binding.

In assay [3] the target is T3, DRB1*1501 (DR2w2b) (Homo sapiens, UniProt P01903+P01911).
T3 construct: expressed in transfected cells; host or cells: transfected fibroblasts L466.1
The experiment in a line: biochemical. Format: binding.

In assay [4] the target is T1, DRB1*0301 (DR3w17). The settings on record: read-out: Binding Capacity (IC 50% nM) Other Alleles DR3.
The target of assay [5] is T4, DRB1*1101 (DR5w11) (Homo sapiens, UniProt P01903+P01911, A100R/A169T/A87E/I96F/K41T/L162R/M171V/P40S/Q125H/Q178H/Q39Y/Q99D/R42S/S66Y/T262R/V115G/W38E).
T4 construct: Epstein-Barr virus (EBV) transformed homozygous cell lines were used as sources; endogenous in cells; host or cells: SWEIG (EBV-transformed homozygous B cell line)
T4 sequence (P01903 26-254, other chains not shown): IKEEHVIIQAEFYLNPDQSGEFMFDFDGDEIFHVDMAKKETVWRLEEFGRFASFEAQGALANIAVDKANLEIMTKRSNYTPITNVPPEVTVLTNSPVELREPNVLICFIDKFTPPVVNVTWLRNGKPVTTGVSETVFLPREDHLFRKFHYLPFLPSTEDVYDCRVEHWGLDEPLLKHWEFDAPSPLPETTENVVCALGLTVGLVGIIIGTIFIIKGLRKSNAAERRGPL
The experiment in a line: biochemical. The class given is binding.

In assay [6] the target is T5, DRB1*0901 (DR9) (Homo sapiens, UniProt P01903+P01911, A100R/A103E/D57H/D86V/F55Y/F60I/F76Y/I96F/K127E/L162R/M171V/P40D/Q125H/Q99R/R33Q/R42F/S133A/S66N/T210M/V115G/W38K/Y107V/Y59G/Y89S).
T5 construct: Epstein-Barr virus (EBV) transformed homozygous cell lines were used as sources; endogenous in cells
The experiment in a line: biochemical. Format: binding. The settings on record: Binding Capacity (IC 50% nM) Other Alleles DR9.

Assay [7] addresses T6, DRB1*0802 (DR8w2) (Homo sapiens, UniProt P01903+P01911, A100R/A103L/A169T/F76Y/H45Y/I96F/K41T/L162R/M171V/P40S/Q125H/Q178H/Q39Y/Q99D/R218S/R42G/S66Y/V115G/W38E).
T6 construct: Epstein-Barr virus (EBV) transformed homozygous cell lines were used as sources; endogenous in cells; host or cells: OLL (EBV-transformed homozygous B cell line)
The experiment in a line: biochemical. Format: binding.

The target in assay [8] is T7, DRB1*1201 (DR5w12) (Homo sapiens, UniProt P01903+P01911, A100R/A169T/D57E/D86V/F55L/H45Y/K41T/L162R/M171V/P40S/Q125H/Q178H/Q39Y/Q99D/R42G/S66L/T262R/V114A/V67L/W38E/Y59H/Y61H/Y89S).
T7 construct: Epstein-Barr virus (EBV) transformed homozygous cell lines were used as sources; endogenous in cells; host or cells: Herluf (EBV-transformed homozygous B cell line)
In words: biochemical. Format: binding.

The target of assay [9] is T8, DRB1*1302 (DR6w19) (Homo sapiens, UniProt P01903+P01911, A100E/A169T/K41T/L162R/M171V/P40S/Q125H/Q178H/Q39Y/Q99D/R42S/S66N/T262R/V115G/W38E/Y61H).
T8 construct: Epstein-Barr virus (EBV) transformed homozygous cell lines were used as sources; the source of Class II molecules the EBV transformed homozygous cell line H0301; endogenous in cells; host or cells: H0301 (EBV-transformed homozygous B cell line)
In words: biochemical. To be noted: Binding Capacity (IC 50% nM) Other Alleles DR6w19. Format: binding.

In assay [10] the target is T9, DRB1*0405 (DR4w15) (Homo sapiens, UniProt P01903+P01911, A100R/A169T/D86S/F76Y/I96L/K127E/L162R/M171V/N62H/P40V/Q125Y/R42H/S133A/S149N/S66Y/V115G/V209L/W38E).
T9 construct: Epstein-Barr virus (EBV) transformed homozygous cell lines were used as sources; endogenous in cells; host or cells: KT3 (EBV-transformed homozygous B cell line)
The experiment in a line: biochemical. Format: binding.

The target of assay [11] is T10, DRB5*0101 (DR2w2a) (Homo sapiens, UniProt P01903+Q30154).
T10 construct: Epstein-Barr virus (EBV) transformed homozygous cell lines were used as sources; endogenous in cells; host or cells: GM3107 (EBV-transformed homozygous B cell line)
In words: biochemical. The class given is binding.

In assay [12] the target is T11, DRB1*0701 (DR7) (Homo sapiens, UniProt P01903+P01911, A100R/A102G/A103Q/D57E/D86V/E43K/F76Y/K127E/L162R/M171V/P40G/Q125H/Q99D/R33Q/R42Y/R54Q/S133A/S66F/T210M/V115G/Y107V/Y59L/Y89S).
T11 construct: Epstein-Barr virus (EBV) transformed homozygous cell lines were used as sources; endogenous in cells; host or cells: PITOUT (EBV-transformed homozygous B cell line)
In words: biochemical. Format: binding.

Assay [13] addresses T12, DRB1*0401 (DR4w4) (Homo sapiens, UniProt P01903+P01911, A100K/A169T/F76Y/I96L/K127E/L162R/M171V/N62H/P40V/Q125Y/R42H/S133A/S149N/S66Y/V115G/V209L/W38E).
T12 construct: Epstein-Barr virus (EBV) transformed homozygous cell lines were used as sources; endogenous in cells; host or cells: PREISS (EBV-transformed homozygous B cell line)
The experiment in a line: biochemical. The class given is binding.

Where [14] appears, read: Binding Capacity (IC50% nM) DR3.
Where [15] appears, read: Binding Capacity (IC50% nM) DR2w2b.
Where [16] appears, read: read-out: Binding Capacity (IC 50% nM) Other Alleles DR2w2b.
[17] abbreviates: read-out: Binding Capacity (IC 50% nM) Other Alleles DR5w11.
Setting [18] is: Binding Capacity (IC 50% nM) Other Alleles DR8w2.
Where [19] appears, read: Binding Capacity (IC 50% nM) Other Alleles DR2w2b.
[20] abbreviates: Binding Capacity (IC 50% nM) Other Alleles DR2w2a.
The mark [21] stands for this setting: Binding Capacity (IC 50% nM) DR1,4,7 DR7.
Where [22] appears, read: Binding Capacity (IC 50% nM) DR1,4,7 DR4w4.
Where [23] appears, read: read-out: Binding Capacity (IC 50% nM) Other Alleles DR5w12.
The mark [24] stands for this setting: read-out: Binding Capacity (IC 50% nM) Other Alleles DR4w15.

Where two headings read alike, the source gives them in different places.

Regarding `CC[C@H](C)[C@H](NC(=O)[C@H](C)NC(=O)[C@H](CC(C)C)NC(=O)[C@H](CCCCN)NC(=O)[C@H](CCCNC(=N)N)NC(=O)[C@@H](N)CCSC)C(=O)N[C@@H](CC(C)C)C(=O)N[C@@H](CO)C(=O)N[C@H](C(=O)N[C@@H](CO)C(=O)N[C@@H](CO)C(=O)N[C@@H](Cc1ccccc1)C(=O)N[C@@H](CC(C)C)C(=O)N[C@@H](Cc1ccccc1)C(=O)N[C@H](C(=O)O)C(C)C)C(C)C` [Peptide 27.388], the figures for the IC50 in assay [1] (setting [14]) and in assay [2] were > 10000 nM and < 1000 nM, respectively.

For `CC(C)C[C@H](NC(=O)CN)C(=O)N[C@@H](C)C(=O)N[C@@H](Cc1ccc(O)cc1)C(=O)N[C@@H](CCCCN)C(=O)N[C@@H](Cc1ccccc1)C(=O)N[C@H](C(=O)N[C@H](C(=O)N1CCC[C@H]1C(=O)NCC(=O)N[C@@H](C)C(=O)N[C@@H](C)C(=O)N[C@H](C(=O)N1CCC[C@H]1C(=O)N[C@@H](Cc1ccc(O)cc1)C(=O)O)[C@@H](C)O)C(C)C)C(C)C` [Peptide 1188.32], the IC50 in assay [3] (setting [15]) is > 10000 nM; in [3] (setting [16]), > 1000 nM; in assay [4], > 1000 nM; in assay [1] (setting [14]) it was > 10000 nM.

Consider `CC[C@H](C)[C@H](NC(=O)[C@H](CC(C)C)NC(=O)[C@H](CCCCN)NC(=O)[C@H](CCSC)NC(=O)[C@H](C)NC(=O)[C@H](CC(C)C)NC(=O)[C@@H]1CCCN1C(=O)[C@@H](NC(=O)[C@H](C)NC(=O)[C@H](Cc1c[nH]cn1)NC(=O)[C@H](CC(N)=O)NC(=O)[C@@H](NC(=O)[C@H](Cc1c[nH]c2ccccc12)NC(=O)[C@H](CC(N)=O)NC(=O)[C@@H](N)Cc1c[nH]cn1)C(C)C)C(C)C)C(=O)O` [Peptide 1188.34], for which the IC50 in [5] (setting [17]) is > 1000 nM; in assay [6] it was < 1000 nM; in assay [7] (setting [18]) it was < 1000 nM; in [8] (Binding Capacity (IC 50% nM) Other Alleles DR5w12) it was < 1000 nM; in [9], < 1000 nM; in assay [10] (Binding Capacity (IC 50% nM) Other Alleles DR4w15), < 1000 nM. In addition, the IC50 is < 1000 nM in assay [3] (setting [19]); > 1000 nM in [4]; < 1000 nM in assay [11] (setting [20]); < 1000 nM in assay [2]; < 1000 nM in assay [12] (setting [21]); < 1000 nM in assay [13] (setting [22]).

`CSCC[C@H](NC(=O)[C@H](C)NC(=O)[C@H](CC(C)C)NC(=O)[C@@H]1CCCN1C(=O)[C@@H](NC(=O)[C@H](C)NC(=O)[C@H](Cc1c[nH]cn1)NC(=O)[C@H](CC(N)=O)NC(=O)[C@@H](NC(=O)[C@H](Cc1c[nH]c2ccccc12)NC(=O)[C@H](CC(N)=O)NC(=O)[C@H](Cc1c[nH]cn1)NC(=O)[C@@H](N)CCCNC(=N)N)C(C)C)C(C)C)C(=O)N[C@@H](CCCCN)C(=O)N[C@@H](CC(C)C)C(=O)O` [Peptide 1188.45]: the IC50 is > 1000 nM in [5] (setting [17]); < 1000 nM in assay [6]; < 1000 nM in [7] (setting [18]); > 10000 nM in assay [8] (Binding Capacity (IC50% nM) DR5w12); > 1000 nM in assay [8] (setting [23]); < 1000 nM in assay [9]. Further, the IC50 was > 1000 nM in assay [10] (setting [24]); < 1000 nM in assay [3] (setting [19]); < 1000 nM in assay [11] (setting [20]); < 1000 nM in assay [1] (Binding Capacity (IC 50% nM) Other Alleles DR3); < 1000 nM in [2]; < 1000 nM in assay [12] (setting [21]). For the same compound, the values for the IC50 in assay [13] (setting [22]) and in assay [13] (Binding Capacity (IC50% nM) DR4w4) were < 1000 nM and 9 nM, respectively.

With `CC(C)[C@H](NC(=O)[C@H](Cc1ccccc1)NC(=O)[C@@H](N)CCCCN)C(=O)N[C@H](C(=O)N1CCC[C@H]1C(=O)NCC(=O)N[C@@H](C)C(=O)N[C@@H](C)C(=O)N[C@H](C(=O)N1CCC[C@H]1C(=O)N[C@@H](Cc1ccc(O)cc1)C(=O)N[C@@H](C)C(=O)NCC(=O)N[C@@H](CCC(=O)O)C(=O)N1CCC[C@H]1C(=O)O)[C@@H](C)O)C(C)C` [Peptide F107.17], the IC50 in assay [5] (Binding Capacity (IC50% nM) DR5w11) was > 10000 nM; in [5] (setting [17]), > 1000 nM; in assay [6], < 1000 nM; in assay [7] (read-out: Binding Capacity (IC 50% nM) Other Alleles DR8w2), > 1000 nM; in assay [8] (setting [23]), > 1000 nM; in [9] it was < 1000 nM. Besides, the IC50 in assay [10] (setting [24]) was > 1000 nM; in [3] (setting [15]), > 10000 nM; in assay [3] (setting [16]) it was > 1000 nM; in assay [4], > 1000 nM; in assay [11] (Binding Capacity (IC50% nM) DR2w2a), > 10000 nM; in [11] (read-out: Binding Capacity (IC 50% nM) Other Alleles DR2w2a), > 1000 nM. Further, the IC50 in assay [2] is < 1000 nM; in [12] (Binding Capacity (IC50% nM) DR7), > 10000 nM; in assay [12] (read-out: Binding Capacity (IC 50% nM) DR1,4,7 DR7), > 1000 nM; in [13] (setting [22]), < 1000 nM.

Source of the values: patent US6413517B1, “Identification of broadly reactive DR restricted epitopes” (Epimmune, Inc., priority 1997, dated 2002).
